The values below come from publication PMC12219900, “Mechanistic insights into Bcs1-mediated mitochondrial membrane translocation of the folded Rieske protein” (The EMBO Journal, 2025).

One data set has as its target T1, yBcs1 (Bcs1 heptamer) (Saccharomyces cerevisiae, UniProt P32839).
T1 construct: full length 1-456, N-terminal 6xHis-FLAG-3C tag (cleavage not described), expressed in S. cerevisiae W303 bcs1delta, digitonin-solubilised, SEC in GDN, homoheptamer about 700 kDa on BN-PAGE
T1 sequence (P32839 1-456): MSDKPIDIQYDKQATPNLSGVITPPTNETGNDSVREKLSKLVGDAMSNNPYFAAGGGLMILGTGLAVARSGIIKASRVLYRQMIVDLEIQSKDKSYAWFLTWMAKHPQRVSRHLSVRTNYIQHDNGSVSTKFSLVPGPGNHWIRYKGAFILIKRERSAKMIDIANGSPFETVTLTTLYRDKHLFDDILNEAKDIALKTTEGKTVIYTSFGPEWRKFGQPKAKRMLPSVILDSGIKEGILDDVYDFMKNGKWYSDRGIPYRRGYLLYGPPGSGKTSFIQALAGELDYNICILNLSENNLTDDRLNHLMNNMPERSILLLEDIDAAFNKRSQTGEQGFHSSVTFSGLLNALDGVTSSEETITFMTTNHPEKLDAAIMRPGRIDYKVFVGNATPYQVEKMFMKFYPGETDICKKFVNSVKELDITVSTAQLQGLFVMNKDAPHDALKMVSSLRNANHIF
Nature of the data set: cryo-EM structure; BN-PAGE shift. It is filed as binding. The note with it: 2 mM ATPγS, 2.5 mM MgCl2, pH 7.5, 25 °C; all seven AAA sites; two states ATPγS1 (9GSN) and ATPγS2 (9GU9).

In the next data set the target is T2, Bcs1-ATPγS2-Rip1-FeS (Saccharomyces cerevisiae, UniProt P32839).
T2 construct: Bcs1 heptamer (His6-FLAG-3C, from yeast) preloaded with E. coli-expressed Rip1-FeS (aa 83-215; TwinStrep tag, 3C-treated; plasmid named Rip1 delta81); with Cytochrome b-c1 complex subunit Rieske, mitochondrial
T2 sequence (P32839 1-456): T1 sequence (P32839 1-456)
T2 sequence (P08067 83-215 partner): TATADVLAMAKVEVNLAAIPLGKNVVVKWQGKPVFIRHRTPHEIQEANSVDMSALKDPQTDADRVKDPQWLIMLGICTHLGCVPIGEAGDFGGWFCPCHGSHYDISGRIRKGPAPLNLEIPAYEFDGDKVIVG
The experiment in a line: cryo-EM structure. The data set is classed as binding. Particulars: Rip1-FeS added before 2 mM ATPγS, 2.5 mM MgCl2, pH 7.5, 25 °C; map only (EMD-51562).

Data set [1] deals with the molecule itself. The experiment in a line: cryo-EM structure; Bcs1 first incubated with Rip1-FeS in BN-buffer with 2.5 mM MgCl2 for 10 min at 25 °C, then 2 mM ATPγS for 10 min; ATPγS2 state.

In the case of `Nc1ncnc2c1ncn2[C@@H]1O[C@H](COP(=O)(O)OP(=O)(O)OP(O)(O)=S)[C@@H](O)[C@H]1O` [ATPγS], the “cryo-EM structure; BN-PAGE shift” value at yBcs1 (Bcs1 heptamer) is reported as “ATPγS density was observed in each of the seven protomers as well”. For the same molecule, the cryo-EM structure result at Bcs1-ATPγS2-Rip1-FeS is on record as “with all seven ATP-binding pockets exhibiting ATPγS density”.

B1: Bcs1 (yeast Bcs1 heptamer) (enzyme, S. cerevisiae, UniProt P32839 1-456, looked up)
chain: T1 sequence (P32839 1-456)
notes: Bcs1, S. cerevisiae, YDR375C, residues 1-456 (coding region of the gene); N-terminal 6xHis-FLAG-3C tag; no cleavage with 3C protease is described for Bcs1; AAA ATPase that forms heptameric rings; also called yBcs1; bc1 synthesis 1
Turning to B1, in data set [1], the “stoichiometry N” value was found to be 7.

Usually stoichiometry N stands for a count of units in the complex or per binding partner.
